# Data published in patent US20110237538A1, “TREATMENT OF LYSOSOMAL STORAGE DISORDERS AND OTHER PROTEOSTATIC DISEASES” (SUMMIT CORPORATION PLC, priority 2008, published 2011).
# Key:
# Format in all cases: biochemical
# [1] = target: T1, wild type (wt) beta-glucocerebrosidase (Homo sapiens, UniProt P04062); assay: beta-glucocerebrosidase activity assay in HL60 lysate (4MU-β-D-glc); settings: at a concentration of 100 μM, 0.5 mM 4MU-β-D-glc;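 note: fluorometric read-out of 4MU liberated from the substrate (ex 360 nm, em 450 nm) after 37 °C incubation, reaction stopped with sodium carbonate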
# T1 construct: The lysates were used as a source for wild type (wt) beta-glucocerebrosidase; endogenous in cells; host or cells: HL60 (ECACC No. 98070106) lysate
# T1 sequence (P04062 40-536): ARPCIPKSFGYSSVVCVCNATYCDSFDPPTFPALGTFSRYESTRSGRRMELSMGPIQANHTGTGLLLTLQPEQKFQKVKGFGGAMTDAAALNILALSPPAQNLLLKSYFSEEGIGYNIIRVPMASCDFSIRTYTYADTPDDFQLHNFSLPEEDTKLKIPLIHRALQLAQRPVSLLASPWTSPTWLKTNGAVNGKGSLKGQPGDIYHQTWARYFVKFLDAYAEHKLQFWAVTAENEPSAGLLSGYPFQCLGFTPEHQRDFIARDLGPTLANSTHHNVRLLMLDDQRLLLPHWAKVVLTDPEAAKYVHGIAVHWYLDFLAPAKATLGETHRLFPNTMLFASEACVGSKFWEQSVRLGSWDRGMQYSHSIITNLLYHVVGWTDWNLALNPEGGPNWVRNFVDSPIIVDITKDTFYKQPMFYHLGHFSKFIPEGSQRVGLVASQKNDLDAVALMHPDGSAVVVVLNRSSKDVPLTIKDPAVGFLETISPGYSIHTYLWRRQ
# [2] = target: T2, wild type (wt) alpha-galactosidase (Homo sapiens, UniProt P06280); assay: alpha-galactosidase activity assay in HL60 lysate (4MU-α-D-gal); settings: at a concentration of 100 uM, 0.5 mM 4MU-α-D-gal, pH 4.5
# T2 construct: The lysates were used as a source for wild type (wt) alpha-galactosidase; endogenous in cells; host or cells: HL60 (ECACC No. 98070106) lysate
# T2 sequence (P06280 32-429): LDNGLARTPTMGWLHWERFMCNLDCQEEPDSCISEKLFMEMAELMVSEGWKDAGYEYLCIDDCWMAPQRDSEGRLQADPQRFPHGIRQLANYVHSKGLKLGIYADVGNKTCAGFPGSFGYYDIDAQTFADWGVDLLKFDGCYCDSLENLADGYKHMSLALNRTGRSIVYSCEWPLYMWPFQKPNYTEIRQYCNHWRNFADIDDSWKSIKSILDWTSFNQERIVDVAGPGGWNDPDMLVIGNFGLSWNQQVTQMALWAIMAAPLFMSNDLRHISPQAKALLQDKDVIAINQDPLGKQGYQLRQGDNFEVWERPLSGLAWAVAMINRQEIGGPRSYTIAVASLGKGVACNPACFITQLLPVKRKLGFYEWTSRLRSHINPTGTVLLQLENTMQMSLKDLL
# [3] = target: T3, Jack bean α-D-mannosidase (Canavalia ensiformis, UniProt C0HJB3); assay: α-mannosidase activity assay with p-nitrophenyl-α-D-mannopyranoside (Example 1); settings: Jack Bean α-mannosidase, p-nitrophenyl-α-D-mannopyranoside as the substrate
# T3 construct: purchased Sigma M7257
# T3 sequence (C0HJB3 1-981): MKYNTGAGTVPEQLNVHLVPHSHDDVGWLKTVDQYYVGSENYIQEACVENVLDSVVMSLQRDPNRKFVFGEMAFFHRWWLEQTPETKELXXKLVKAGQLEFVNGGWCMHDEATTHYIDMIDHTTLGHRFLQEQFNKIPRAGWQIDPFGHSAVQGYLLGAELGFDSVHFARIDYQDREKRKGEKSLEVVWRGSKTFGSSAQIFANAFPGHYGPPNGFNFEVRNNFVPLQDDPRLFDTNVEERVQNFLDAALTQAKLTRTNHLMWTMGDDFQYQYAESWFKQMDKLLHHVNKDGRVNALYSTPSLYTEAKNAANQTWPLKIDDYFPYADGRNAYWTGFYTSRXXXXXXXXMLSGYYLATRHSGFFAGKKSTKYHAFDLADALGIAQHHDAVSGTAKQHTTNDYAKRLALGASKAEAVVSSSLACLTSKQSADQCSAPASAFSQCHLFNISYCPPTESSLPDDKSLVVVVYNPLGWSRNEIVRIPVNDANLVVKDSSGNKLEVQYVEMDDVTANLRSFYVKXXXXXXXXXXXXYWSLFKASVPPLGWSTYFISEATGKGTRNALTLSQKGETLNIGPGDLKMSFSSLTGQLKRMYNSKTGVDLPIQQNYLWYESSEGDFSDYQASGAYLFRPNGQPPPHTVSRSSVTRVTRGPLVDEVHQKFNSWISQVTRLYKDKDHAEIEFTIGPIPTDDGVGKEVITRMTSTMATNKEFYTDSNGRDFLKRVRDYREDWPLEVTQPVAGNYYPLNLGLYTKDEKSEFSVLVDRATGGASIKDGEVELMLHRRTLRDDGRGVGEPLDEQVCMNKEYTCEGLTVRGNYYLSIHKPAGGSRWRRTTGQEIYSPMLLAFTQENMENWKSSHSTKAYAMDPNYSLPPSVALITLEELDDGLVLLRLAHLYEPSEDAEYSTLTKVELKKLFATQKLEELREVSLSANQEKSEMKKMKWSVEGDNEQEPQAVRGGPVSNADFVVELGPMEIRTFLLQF
# Experimental: Solutions of 0.2M Mcllvane buffer at pH 4.5 and 5 mM p-nitrophenyl-α-D-mannopyranoside (Sigma, N2127), dissolved in the buffer, were prepared. A solution of Jack bean α-D-mannosidase enzyme (Sigma, M7257, 22 Units/mg, 6.2 mg/ml.) was also prepared at 0.6 Units/ml in the buffer.
# The incubation mixture consisted of 10 μl enzyme solution, 10 μl of 1 mg/ml aqueous iminosugar solution and 50 μl of 5 mM substrate made up in buffer at the optimum pH for the enzyme. The reactions were stopped by addition of 70 μl 0.4M glycine (pH 10.4) during the exponential phase of the reaction, which had been determined at the beginning using uninhibited assays in which water replaced inhibitor. Final absorbances were read at 405 nm using a Versamax microplate reader (Molecular Devices). Assays were carried out in triplicate, and the values given are means of the three replicates. Results were expressed as a percentage of uninhibited assays in which water replaced inhibitor.
# [4] = tested on: α-D-glucosidase (Bacillus sterothermophilus); assay: glycosidase assay with p-nitrophenyl substrates (Example 2); settings: 10 μl of 5 mM iminosugar solution in 70 μl incubation mixture; 20° C.
# Experimental: (§1) The assays were conducted as described by Watson et al. 1997, Phytochemistry 46: 255-259 using p-nitrophenyl-substrates. Assays were carried out in microtitre plates. Enzymes were assayed in 0.1M citric acid/0.2M di-sodium hydrogen phosphate (Mcllvaine) buffers at the optimum pH for the enzyme. All assays were carried out at 20° C. All enzymes and substrates were purchased from Sigma Aldrich Chemicals Limited. The incubation mixture consisted of 10 μl of enzyme solution, 10 μl of the iminosugars solution (made up in deionised water at 5 mM) and 50 μl of the appropriate 5 mM p-nitrophenyl substrate made up in McIlvaine buffer at the optimum pH for the enzyme. The reactions were stopped with 0.4M glycine (pH 10.4) during the exponential phase of the reaction, which was determined at the beginning of the assay using blanks with water, which were incubated for a range of time periods to measure the reaction rate using 5 mM substrate solution. Absorbances were read at 405 nm. Water was substituted for the inhibitors in the blanks.
# (§2) The glycosidases used were α-D-glucosidase (yeast), α-D-glucosidase (Bacillus sterothermophilus), α-D-glucosidase (rice), amyloglucosidase (Aspergillus niger), β-D-glucosidase (almond), α-D-galactosidase (green coffee beans), β-D-galactosidase (bovine liver), α-L-fucosidase (bovine kidney), α-D-mannosidase (Jack bean), β-D-mannosidase (Cellullomonas fimi), Naringinase (Penicillium decumbens), N-acetyl-β-D-glucosaminidase (Bovine kidney), N-acetyl-β-D-glucosaminidase (Aspergillus oryzae) and N-acetyl-β-D-glucosaminidase (Jack bean)
# [5] = target: T4, α-D-galactosidase (green coffee beans) (Coffea arabica, UniProt Q42656); assay: as above; settings: 10 μl of 5 mM iminosugar solution in 70 μl incubation mixture; 20° C.; read-out: Promotion of glycosidase activity: α-D-galactosidase (Green coffee bean)
# T4 construct: purchased Sigma Aldrich Chemicals Limited
# Experimental: as §1, §2
# T4 sequence (Q42656 16-378): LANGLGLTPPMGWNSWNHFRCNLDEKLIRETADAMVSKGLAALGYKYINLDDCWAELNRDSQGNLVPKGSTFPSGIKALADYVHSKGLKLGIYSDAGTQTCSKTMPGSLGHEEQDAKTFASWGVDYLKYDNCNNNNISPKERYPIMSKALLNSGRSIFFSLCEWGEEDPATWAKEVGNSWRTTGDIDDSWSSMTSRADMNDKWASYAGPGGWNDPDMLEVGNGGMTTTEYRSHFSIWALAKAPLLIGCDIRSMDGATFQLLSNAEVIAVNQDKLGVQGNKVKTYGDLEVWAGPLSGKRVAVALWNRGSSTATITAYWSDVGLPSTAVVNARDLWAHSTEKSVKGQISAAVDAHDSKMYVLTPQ
inhibition at 100 µM [2],Compound,Promotion of glycosidase activity: α-D-glucosidase (Bacillus sterothermophilus) [4],other results
,"O=C(O)[C@@]1(O)CNC[C@@H](O)[C@H]1O [Compound 87, (3R,4R,5R)-3,4,5-trihydroxypiperidine-3-carboxylic acid]",,promotion of the mannosidase activity (in words) [3]: promotion of the mannosidase activity
> 50%,"O=C1N[C@H](CO)[C@@H](O)[C@H](O)[C@@H]1O [Compound 112, (3S,4S,5R,6R)-3,4,5-trihydroxy-6-(hydroxymethyl)piperidin-2-one]",,
> 50%,"OCCN1[C@H](CO)[C@H](O)[C@H](O)[C@H]1CO [Compound 168, (2R,3R,4S,5R)-1-(2-hydroxyethyl)-2,5-bis(hydroxymethyl)pyrrolidine-3,4-diol]",,
> 50%,"OC[C@H]1N[C@H](CO)[C@H](O)C(O)[C@H]1O (stereo partly drawn) [Compound 189, (2R,3S,5S,6R)-2,6-bis(hydroxymethyl)piperidine-3,4,5-triol]",,
> 50%,"OC[C@H]1NC[C@H](O)[C@@H](O)[C@H]1O [Compound 215, (2R,3S,4R,5S)-2-(hydroxymethyl)piperidine-3,4,5-triol]",,
> 50%,"CNC(=O)[C@H]1N[C@H](CO)[C@@H](O)[C@H](O)[C@@H]1O [Compound 246, (2S,3R,4S,5R,6R)-3,4,5-trihydroxy-6-(hydroxymethyl)-N-methylpiperidine-2-carboxamide]",,
,"CN1C[C@@H](O)[C@H](O)[C@@H](O)C1 [Compound 253, (3R,4r,5S)-1-methylpiperidine-3,4,5-triol]",56 % increase in absorbance compared to the water controls,
> 50%,"C[C@H]1NC[C@H](O)[C@@H](O)[C@H]1O [Compound 258, (2R,3S,4R,5S)-2-methylpiperidine-3,4,5-triol]",,
> 50%,"C[C@H]1N[C@H](CO)[C@H](O)[C@H](O)[C@H]1O [Compound 263, (2R,3S,4R,5S,6R)-2-(hydroxymethyl)-6-methylpiperidine-3,4,5-triol]",,
> 50%,"C[C@H]1N[C@@H](CO)[C@H](O)[C@H](O)[C@H]1O [Compound 264, (2S,3S,4R,5S,6R)-2-(hydroxymethyl)-6-methylpiperidine-3,4,5-triol]",,
> 50%,"C[C@@H]1N[C@@H](CO)[C@H](O)[C@H](O)[C@H]1O [Compound 269, (2S,3S,4R,5S,6S)-2-(hydroxymethyl)-6-methylpiperidine-3,4,5-triol]",,
,"N[C@H]1CN(Cc2ccccc2)[C@@H](CO)[C@@H]1O [Compound 312, (2S,3R,4S)-4-amino-1-benzyl-2-(hydroxymethyl)pyrrolidin-3-ol]",52 % increase in absorbance compared to the water controls,activation at 714 µM [5]: 30%
,"CCCCCCCCCN1C[C@H](NC(C)=O)[C@@H](O)[C@@H]1CO [Compound 338, N-((3S,4R,5S)-4-hydroxy-5-(hydroxymethyl)-1-nonylpyrrolidin-3-yl)acetamide]",170 % increase in absorbance compared to the water controls,activation at 714 µM [5]: 35%
,"N[C@@H]1CN[C@H](CO)C1 [Compound 344, ((2S,4S)-4-aminopyrrolidin-2-yl)methanol]",71 % increase in absorbance compared to the water controls,
,"CC(=O)N[C@H]1C[C@@H](CO)N(CCO)C1 [Compound 347, N-((3S,5S)-1-(2-hydroxyethyl)-5-(hydroxymethyl)pyrrolidin-3-yl)acetamide]",68 % increase in absorbance compared to the water controls,
,"CCCCN1C[C@@H](NC(C)=O)C[C@H]1CO [Compound 350, N-((3S,5S)-1-butyl-5-(hydroxymethyl)pyrrolidin-3-yl)acetamide]",160 % increase in absorbance compared to the water controls,activation at 714 µM [5]: 38%
,"N[C@@H]1CN(Cc2ccccc2)[C@H](CO)[C@H]1O [Compound 370, (2R,3S,4R)-4-amino-1-benzyl-2-(hydroxymethyl)pyrrolidin-3-ol]",81 % increase in absorbance compared to the water controls,activation at 714 µM [5]: 43%
> 50%,"C=CCC[C@H]1N[C@@H](CO)[C@H](O)[C@@H](O)[C@@H]1O [Compound 380, (2R,3R,4S,5S,6S)-2-(but-3-enyl)-6-(hydroxymethyl)piperidine-3,4,5-triol]",,
> 50%,"OC[C@H]1NC[C@@H](O)[C@H](O)[C@H]1O [Compound 447, (2R,3S,4S,5R)-2-(hydroxymethyl)piperidine-3,4,5-triol]",,

Compound,inhibition at 100 µM [2],Promotion of glycosidase activity: α-D-glucosidase (Bacillus sterothermophilus) [4],other results
"O[C@@H]1[C@@H](O)[C@H](O)[C@]2(O)CC[C@H]1N2 [Compound 21, (1R,2S,3R,4S,5R)-8-azabicyclo[3.2.1]octane-1,2,3,4-tetraol]",> 50%,,inhibition at 100 µM [1]: > 50%
